In publication PMC4685510, “A Cell Biologist’s Field Guide to Aurora Kinase Inhibitors” (Frontiers in Oncology, 2015):
Where two headings read alike, the source gives them in different places.

Experiments:
Experiment in all cases: biochemical
Format in all cases: biochemical
[1] = biological target: T1, 363 human kinases (including Aurora A/B/C) (Homo sapiens, UniProt Q16832); conditions: DDR2, [ATP] 5 µM; for remaining activity at 0.1 µM: 100 nM; for remaining activity at 0.1 µM / remaining activity at 0.5 µM: read-out: % Enzyme Activity (relative to DMSO controls)
T1 sequence (Q16832 22-855): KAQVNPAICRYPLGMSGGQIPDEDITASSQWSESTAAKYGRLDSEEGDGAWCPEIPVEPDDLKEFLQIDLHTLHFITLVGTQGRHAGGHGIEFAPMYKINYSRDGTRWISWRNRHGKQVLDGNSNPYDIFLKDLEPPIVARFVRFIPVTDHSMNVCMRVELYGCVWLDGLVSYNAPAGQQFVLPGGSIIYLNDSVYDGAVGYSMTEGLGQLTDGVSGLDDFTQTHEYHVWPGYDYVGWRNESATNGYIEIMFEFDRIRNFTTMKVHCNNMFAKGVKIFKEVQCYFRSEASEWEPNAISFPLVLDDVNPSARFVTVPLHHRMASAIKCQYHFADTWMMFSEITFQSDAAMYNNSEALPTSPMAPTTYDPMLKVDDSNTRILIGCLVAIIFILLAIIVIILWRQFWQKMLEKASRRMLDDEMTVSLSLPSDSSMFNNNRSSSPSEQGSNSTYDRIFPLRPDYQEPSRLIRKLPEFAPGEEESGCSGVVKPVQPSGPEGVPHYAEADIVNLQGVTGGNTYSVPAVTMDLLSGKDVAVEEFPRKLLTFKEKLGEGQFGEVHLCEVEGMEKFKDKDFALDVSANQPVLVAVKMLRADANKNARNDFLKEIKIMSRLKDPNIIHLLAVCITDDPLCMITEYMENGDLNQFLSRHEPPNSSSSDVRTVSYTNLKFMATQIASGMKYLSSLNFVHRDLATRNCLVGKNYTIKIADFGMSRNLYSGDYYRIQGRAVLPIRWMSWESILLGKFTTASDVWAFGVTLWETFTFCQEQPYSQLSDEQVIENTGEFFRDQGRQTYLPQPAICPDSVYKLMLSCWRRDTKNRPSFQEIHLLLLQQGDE
Source text: (§1) However, the Aurora A/B selectivity ratios derived from our in vitro and in vivo data can be compared to prioritize inhibitors.

[2] = biological target: 363 human kinases (including Aurora A/B/C) (Homo sapiens, UniProt P06493); conditions: for remaining activity at 0.1 µM: 100 nM; for remaining activity at 0.1 µM / remaining activity at 0.5 µM: read-out: % Enzyme Activity (relative to DMSO controls); for remaining activity at 0.5 µM / % Enzyme Activity (relative to DMSO controls): 500 nM
Source text: as §1

[3] = biological target: 363 human kinases (including Aurora A/B/C) (Homo sapiens, UniProt P29376); conditions: TYK1/LTK; for remaining activity at 0.1 µM: 100 nM; for remaining activity at 0.1 µM / remaining activity at 0.5 µM: read-out: % Enzyme Activity (relative to DMSO controls)
Source text: as §1

[4] = biological target: 363 human kinases (including Aurora A/B/C) (Homo sapiens, UniProt Q9BXA6); conditions: SSTK/TSSK6; for remaining activity at 0.1 µM: 100 nM; for remaining activity at 0.1 µM / remaining activity at 0.5 µM: read-out: % Enzyme Activity (relative to DMSO controls)
Source text: as §1

[5] = biological target: T2, 363 human kinases (including Aurora A/B/C) (Homo sapiens, UniProt O94806); conditions: PKCnu/PRKD3; for remaining activity at 0.1 µM: 100 nM; for remaining activity at 0.1 µM / remaining activity at 0.5 µM: read-out: % Enzyme Activity (relative to DMSO controls)
T2 sequence (O94806 1-890): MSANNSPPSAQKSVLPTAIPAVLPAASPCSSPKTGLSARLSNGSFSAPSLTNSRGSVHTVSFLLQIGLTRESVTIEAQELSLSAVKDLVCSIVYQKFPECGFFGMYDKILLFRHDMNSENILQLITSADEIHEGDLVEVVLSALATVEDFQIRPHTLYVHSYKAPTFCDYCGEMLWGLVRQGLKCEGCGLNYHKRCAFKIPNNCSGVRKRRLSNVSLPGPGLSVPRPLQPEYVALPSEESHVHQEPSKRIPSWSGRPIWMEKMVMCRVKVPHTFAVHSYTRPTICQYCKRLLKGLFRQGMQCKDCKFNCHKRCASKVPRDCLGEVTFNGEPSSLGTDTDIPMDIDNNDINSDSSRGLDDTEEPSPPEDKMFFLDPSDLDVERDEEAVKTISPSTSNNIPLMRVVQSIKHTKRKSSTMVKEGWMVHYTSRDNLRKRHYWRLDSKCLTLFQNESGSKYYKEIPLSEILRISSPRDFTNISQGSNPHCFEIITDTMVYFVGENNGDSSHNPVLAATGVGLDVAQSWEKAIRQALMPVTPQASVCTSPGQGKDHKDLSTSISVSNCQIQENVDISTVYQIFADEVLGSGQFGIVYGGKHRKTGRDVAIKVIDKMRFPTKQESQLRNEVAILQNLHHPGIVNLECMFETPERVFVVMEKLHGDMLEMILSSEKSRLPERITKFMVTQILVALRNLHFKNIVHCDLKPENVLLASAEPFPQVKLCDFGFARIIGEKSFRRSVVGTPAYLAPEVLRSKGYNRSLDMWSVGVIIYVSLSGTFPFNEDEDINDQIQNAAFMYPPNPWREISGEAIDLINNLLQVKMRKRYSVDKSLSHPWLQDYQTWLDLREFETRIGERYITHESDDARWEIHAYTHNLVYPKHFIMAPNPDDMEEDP
Source text: as §1

[6] = biological target: 363 human kinases (including Aurora A/B/C) (Homo sapiens, UniProt P17252); conditions: PKCa; for remaining activity at 0.1 µM: 100 nM; for remaining activity at 0.1 µM / remaining activity at 0.5 µM: read-out: % Enzyme Activity (relative to DMSO controls)
Source text: as §1

363 human kinases (including Aurora A/B/C) (Homo sapiens, UniProt Q9BXA6), sequence (Q9BXA6 whole entry): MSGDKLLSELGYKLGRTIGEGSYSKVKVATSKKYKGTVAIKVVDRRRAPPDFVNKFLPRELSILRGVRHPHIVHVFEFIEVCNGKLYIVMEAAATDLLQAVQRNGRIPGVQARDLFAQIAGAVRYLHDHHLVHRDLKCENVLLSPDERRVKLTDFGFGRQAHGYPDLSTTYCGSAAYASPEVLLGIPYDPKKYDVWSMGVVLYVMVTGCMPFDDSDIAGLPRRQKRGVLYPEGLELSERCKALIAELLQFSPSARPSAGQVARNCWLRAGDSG
363 human kinases (including Aurora A/B/C) (Homo sapiens, UniProt P29376), sequence (P29376 17-864): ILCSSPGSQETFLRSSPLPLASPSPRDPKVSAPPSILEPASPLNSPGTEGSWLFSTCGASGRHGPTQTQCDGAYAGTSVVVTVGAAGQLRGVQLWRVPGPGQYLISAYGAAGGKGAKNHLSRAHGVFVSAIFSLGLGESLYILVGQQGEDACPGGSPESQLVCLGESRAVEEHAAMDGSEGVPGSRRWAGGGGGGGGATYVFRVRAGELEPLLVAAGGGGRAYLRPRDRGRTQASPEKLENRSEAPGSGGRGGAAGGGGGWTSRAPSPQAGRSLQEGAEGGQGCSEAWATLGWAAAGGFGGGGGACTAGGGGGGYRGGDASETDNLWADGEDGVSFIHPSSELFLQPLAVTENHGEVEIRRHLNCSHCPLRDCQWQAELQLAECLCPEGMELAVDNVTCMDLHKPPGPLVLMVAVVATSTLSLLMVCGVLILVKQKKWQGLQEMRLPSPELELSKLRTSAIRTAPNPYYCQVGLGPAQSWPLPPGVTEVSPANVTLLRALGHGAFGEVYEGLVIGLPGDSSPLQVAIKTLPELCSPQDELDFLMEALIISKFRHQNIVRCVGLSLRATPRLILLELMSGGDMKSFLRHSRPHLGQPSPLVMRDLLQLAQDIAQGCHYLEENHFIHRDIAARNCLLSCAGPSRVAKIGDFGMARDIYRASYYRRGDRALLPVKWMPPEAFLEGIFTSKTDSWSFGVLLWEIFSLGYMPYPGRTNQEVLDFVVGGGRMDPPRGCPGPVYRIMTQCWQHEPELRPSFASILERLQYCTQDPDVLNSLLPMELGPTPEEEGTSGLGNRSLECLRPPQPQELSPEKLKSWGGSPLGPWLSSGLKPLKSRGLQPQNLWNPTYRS
363 human kinases (including Aurora A/B/C) (Homo sapiens, UniProt P06493), sequence (P06493 whole entry): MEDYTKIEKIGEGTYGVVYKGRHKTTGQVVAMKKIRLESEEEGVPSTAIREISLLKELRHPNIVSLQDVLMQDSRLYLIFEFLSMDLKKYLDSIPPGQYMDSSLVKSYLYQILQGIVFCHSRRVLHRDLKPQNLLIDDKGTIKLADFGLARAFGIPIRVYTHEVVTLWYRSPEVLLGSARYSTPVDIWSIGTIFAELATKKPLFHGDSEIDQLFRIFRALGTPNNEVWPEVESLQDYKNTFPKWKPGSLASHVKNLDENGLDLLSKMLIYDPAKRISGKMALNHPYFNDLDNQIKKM

CCn1cc(-c2ccnc3[nH]c(-c4cccc(CN(C)C)c4)cc23)c(-c2ccc(NC(=O)N(C)C)cc2)n1 [GSK1070916]
remaining activity at 0.1 µM [1]: 76.1%
remaining activity at 0.1 µM ([2]; CDK1/cyclin A, [ATP] 10 µM): 106%
remaining activity at 0.1 µM ([2]; CDK1/cyclin B, [ATP] 20 µM): 84.6%
remaining activity at 0.1 µM ([2]; CDK1/cyclin E, [ATP] 20 µM): 100%
remaining activity at 0.1 µM [3]: 106%
remaining activity at 0.1 µM [4]: 100%
remaining activity at 0.1 µM [5]: 76.8%
remaining activity at 0.1 µM [6]: 99.6%

O=C(O)[C@]1(Cc2cccc(Nc3nccs3)n2)CC[C@@H](Oc2cccc(Cl)c2F)CC1 [MK-5108]
remaining activity at 0.1 µM [1]: 21.8%
remaining activity at 0.5 µM ([1]; 500 nM): 9.68%
remaining activity at 0.1 µM ([2]; CDK1/cyclin A, [ATP] 10 µM): 92.7%
remaining activity at 0.5 µM ([2]; CDK1/cyclin A, [ATP] 10 µM): 76.5%
remaining activity at 0.1 µM ([2]; CDK1/cyclin B, [ATP] 20 µM): 95.3%
remaining activity at 0.5 µM ([2]; CDK1/cyclin B, [ATP] 20 µM): 64%
remaining activity at 0.1 µM ([2]; CDK1/cyclin E, [ATP] 20 µM): 101%
remaining activity at 0.5 µM ([2]; CDK1/cyclin E, [ATP] 20 µM): 84.6%
remaining activity at 0.1 µM [3]: 87.6%
remaining activity at 0.5 µM ([3]; 500 nM): 64.2%
remaining activity at 0.1 µM [4]: 95.1%
remaining activity at 0.5 µM ([4]; 500 nM): 104%
remaining activity at 0.1 µM [5]: 97.1%
remaining activity at 0.5 µM ([5]; 500 nM): 87.9%
remaining activity at 0.1 µM [6]: 69.8%
remaining activity at 0.5 µM ([6]; 500 nM): 33.2%

O=C(c1cccc(Cl)c1F)N1CCN(Cc2cccc(Nc3nccs3)n2)CC1 [MK-8745]
% Enzyme Activity (relative to DMSO controls) ([1]; 500 nM): 71.49%
remaining activity at 0.5 µM ([1]; 500 nM): 73.2%
% Enzyme Activity (relative to DMSO controls) ([2]; CDK1/cyclin A, [ATP] 10 µM): 86.34%
remaining activity at 0.5 µM ([2]; CDK1/cyclin A, [ATP] 10 µM): 86.8%
% Enzyme Activity (relative to DMSO controls) ([2]; CDK1/cyclin B, [ATP] 20 µM): 78.80%
remaining activity at 0.5 µM ([2]; CDK1/cyclin B, [ATP] 20 µM): 79.4%
% Enzyme Activity (relative to DMSO controls) ([2]; CDK1/cyclin E, [ATP] 20 µM): 93.92%
remaining activity at 0.5 µM ([2]; CDK1/cyclin E, [ATP] 20 µM): 94.9%
% Enzyme Activity (relative to DMSO controls) ([3]; 500 nM): 94.24%
remaining activity at 0.5 µM ([3]; 500 nM): 96.4%
% Enzyme Activity (relative to DMSO controls) ([4]; 500 nM): 91.73%
remaining activity at 0.5 µM ([4]; 500 nM): 94.5%
% Enzyme Activity (relative to DMSO controls) ([5]; 500 nM): 75.68%
remaining activity at 0.5 µM ([5]; 500 nM): 79%
% Enzyme Activity (relative to DMSO controls) ([6]; 500 nM): 92.64%
remaining activity at 0.5 µM ([6]; 500 nM): 95.4%
